Experiments:
[1] = tested on: EGFR Del19/T790M/C797S (BaF3-DTC cells); assay: EGFR degradation HTRF assay, BaF3-DTC cells; format: cell-based; conditions: 16h treatment; for DTC Dmax (%): maximum percentage of degradation; for DC50: read-out: DTC DC50
In short: (§1)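 EGFR remaining after a 16 h, 37 °C exposure (8 doses, 5-fold steps from 10 uM final, 0.2% DMSO) was quantified by HTRF antibodies in cell lysate. Percent inhibition relative to DMSO control was fitted by four-parameter logistic to give DC50; Dmax denotes maximal degradation.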

[2] = molecular target: T1, EGFR L858R/T790M/C797S (BaF3-LTC cells) (Homo sapiens, UniProt P00533, C797S/L858R/T790M); assay: EGFR degradation HTRF assay, BaF3-LTC cells; format: cell-based; conditions: BaF3-LTC, 16h treatment; for Dmax: maximum percentage of degradation, read-out: LTC Dmax (%); for DC50: read-out: LTC DC50
T1 construct: expressed in transfected cells; host or cells: BaF3
In short: as §1

T1 sequence (P00533 25-1210 T790M/C797S/L858R): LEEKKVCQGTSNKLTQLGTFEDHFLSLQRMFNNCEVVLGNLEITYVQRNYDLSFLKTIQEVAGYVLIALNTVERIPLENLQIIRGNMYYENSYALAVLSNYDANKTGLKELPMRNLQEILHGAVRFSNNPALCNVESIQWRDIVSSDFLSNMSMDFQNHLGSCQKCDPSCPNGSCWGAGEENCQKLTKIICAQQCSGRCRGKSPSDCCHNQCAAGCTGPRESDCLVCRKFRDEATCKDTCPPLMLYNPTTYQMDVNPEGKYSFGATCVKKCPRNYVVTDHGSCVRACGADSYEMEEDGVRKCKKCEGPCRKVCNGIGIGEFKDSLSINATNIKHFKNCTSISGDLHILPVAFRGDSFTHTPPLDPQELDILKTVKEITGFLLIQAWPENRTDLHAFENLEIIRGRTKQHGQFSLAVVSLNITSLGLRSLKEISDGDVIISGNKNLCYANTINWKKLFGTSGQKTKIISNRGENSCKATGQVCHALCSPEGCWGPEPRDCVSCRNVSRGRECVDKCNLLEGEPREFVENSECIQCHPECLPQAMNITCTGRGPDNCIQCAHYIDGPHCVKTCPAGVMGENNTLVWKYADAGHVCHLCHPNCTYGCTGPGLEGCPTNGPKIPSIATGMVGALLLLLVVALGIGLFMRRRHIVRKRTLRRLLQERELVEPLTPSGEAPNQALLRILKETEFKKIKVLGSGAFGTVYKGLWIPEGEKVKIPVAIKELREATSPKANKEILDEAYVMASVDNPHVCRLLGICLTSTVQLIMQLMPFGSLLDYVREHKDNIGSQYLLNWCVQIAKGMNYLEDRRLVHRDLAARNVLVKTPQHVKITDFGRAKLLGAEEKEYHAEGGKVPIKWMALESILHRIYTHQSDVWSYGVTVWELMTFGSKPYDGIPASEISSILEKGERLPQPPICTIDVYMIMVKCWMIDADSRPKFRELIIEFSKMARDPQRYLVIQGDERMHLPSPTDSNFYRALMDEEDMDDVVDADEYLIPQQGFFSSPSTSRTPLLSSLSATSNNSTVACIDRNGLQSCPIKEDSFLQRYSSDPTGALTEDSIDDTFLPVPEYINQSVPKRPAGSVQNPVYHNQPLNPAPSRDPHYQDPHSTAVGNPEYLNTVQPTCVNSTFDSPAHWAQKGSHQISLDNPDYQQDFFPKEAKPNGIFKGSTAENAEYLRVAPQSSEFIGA

| SMILES | DC50 [1] [nM] | Dmax [2] [%] | DC50 [2] [nM] | DTC Dmax (%) [1] [%] |
| --- | --- | --- | --- | --- |
| CCc1cc(Nc2ncc(Br)c(Nc3ccc4nccnc4c3P(C)(C)=O)n2)c(OC)cc1N1CCC(N2CCN(CCc3cc(F)c(C4CCC(=O)NC4=O)cc3Cl)CC2)CC1 (stereo not drawn) [Example 165, 3-(4-(2-(4-(1-(4-((5-bromo-4-((5-(dimethylphosphoryl)quinoxalin-6-yl)amino)pyrimidin-2-yl)amino)-2-ethyl-5-methoxyphenyl)piperidin-4-yl)piperazin-1-yl)ethyl)-5-chloro-2-fluorophenyl)piperidine-2,6-dione] | 18.1 | 84.2 | 44 | 82.21 |
| CCc1cc(Nc2ncc(Br)c(Nc3ccc4nc(C)ccc4c3P(C)(C)=O)n2)c(OC)cc1N1CCC(N2CCN(CCC3CCN(c4ccc5nn(C6CCC(=O)NC6=O)cc5c4)CC3)CC2)CC1 (stereo not drawn) [Example 719, 3-(5-(4-(2-(4-(1-(4-((5-bromo-4-((5-(dimethylphosphoryl)-2-methylquinolin-6-yl)amino)pyrimidin-2-yl)amino)-2-ethyl-5-methoxyphenyl)piperidin-4-yl)piperazin-1-yl)ethyl)piperidin-1-yl)-2H-indazol-2-yl)piperidine-2,6-dione] | 30.6 | 90.4 | 72.9 | 84.38 |
| CCc1cc(Nc2ncc(Br)c(Nc3ccc4nc(C)ccc4c3P(C)(C)=O)n2)c(OC)cc1N1CCC(N2CCN(C(=O)C(C)(C)CNc3cc(F)c(C4CCC(=O)NC4=O)c(F)c3)CC2)CC1 (stereo not drawn) [Example 706, 3-(4-((3-(4-(1-(4-((5-bromo-4-((5-(dimethylphosphoryl)-2-methylquinolin-6-yl)amino)pyrimidin-2-yl)amino)-2-ethyl-5-methoxyphenyl)piperidin-4-yl)piperazin-1-yl)-2,2-dimethyl-3-oxopropyl)amino)-2,6-difluorophenyl)piperidine-2,6-dione] | 2.17 | 90.8 | 5.64 | 88.51 |
| CCc1cc(Nc2ncc(Br)c(Nc3ccc4nc(C)ccc4c3P(C)(C)=O)n2)c(OC)cc1N1CCC(N2CCN(CCc3cc(F)c(C4CCC(=O)NC4=O)c(F)c3)CC2)CC1 (stereo not drawn) [Example 314, 3-(4-(2-(4-(1-(4-((5-bromo-4-((5-(dimethylphosphoryl)-2-methylquinolin-6-yl)amino)pyrimidin-2-yl)amino)-2-ethyl-5-methoxyphenyl)piperidin-4-yl)piperazin-1-yl)ethyl)-2,6-difluorophenyl)piperidine-2,6-dione] | 2.48 | 87.8 | 6.5 | 91.87 |
| CCc1cc(Nc2ncc(Br)c(Nc3ccc4nc(C5CC5)ccc4c3P(C)(C)=O)n2)c(OC)cc1N1CCC(N2CCN(CCc3cc(F)c(C4CCC(=O)NC4=O)c(F)c3)CC2)CC1 (stereo not drawn) [Example 427, 3-(4-(2-(4-(1-(4-((5-bromo-4-((2-cyclopropyl-5-(dimethylphosphoryl)quinolin-6-yl)amino)pyrimidin-2-yl)amino)-2-ethyl-5-methoxyphenyl)piperidin-4-yl)piperazin-1-yl)ethyl)-2,6-difluorophenyl)piperidine-2,6-dione] | 7.1 | 88.3 | 8.61 | 93.94 |
| CCc1cc(Nc2ncc(Br)c(Nc3ccc4ncn(C)c(=O)c4c3P(C)(C)=O)n2)c(OC)cc1N1CCC(N2CCN(C(=O)C3CN(c4ccc5c(c4)CN(C4CCC(=O)NC4=O)C5=O)C3)CC2)CC1 (stereo not drawn) [Example 712, 3-(5-(3-(4-(1-(4-((5-bromo-4-((5-(dimethylphosphoryl)-3-methyl-4-oxo-3,4-dihydroquinazolin-6-yl)amino)pyrimidin-2-yl)amino)-2-ethyl-5-methoxyphenyl)piperidin-4-yl)piperazine-1-carbonyl)azetidin-1-yl)-1-oxoisoindolin-2-yl)piperidine-2,6-dione] | 2.06 | 88.6 | 7.34 | 91.27 |
| CCc1cc(Nc2ncc(Br)c(Nc3ccc4ncn(C)c(=O)c4c3P(C)(C)=O)n2)c(OC)cc1N1CCC(N2CCN(CCc3cc(F)c(C4CCC(=O)NC4=O)c(F)c3)CC2)CC1 (stereo not drawn) [Example 428, 3-(4-(2-(4-(1-(4-((5-bromo-4-((5-(dimethylphosphoryl)-3-methyl-4-oxo-3,4-dihydroquinazolin-6-yl)amino)pyrimidin-2-yl)amino)-2-ethyl-5-methoxyphenyl)piperidin-4-yl)piperazin-1-yl)ethyl)-2,6-difluorophenyl)piperidine-2,6-dione] | 1.13 | 93.5 | 3.67 | 95.35 |

The remaining molecules from weak to strong by DC50 [1], led by results:

| DC50 [1] [nM] | Dmax [2] [%] | DC50 [2] [nM] | SMILES | DTC Dmax (%) [1] [%] |
| --- | --- | --- | --- | --- |
| 22 | 90.5 | 33.5 | COc1cc(N2CCC(N3C[C@@H]4C[C@H]3CN4CCC3CCN(c4cc(F)c(C5CCC(=O)NC5=O)c(F)c4)CC3)CC2)c(C)cc1Nc1ncc(Br)c(Nc2ccc3nccnc3c2P(C)(C)=O)n1 (stereo partly drawn) [Example 268, 3-(4-(4-(2-((1S,4S)-5-(1-(4-((5-bromo-4-((5-(dimethylphosphoryl)quinoxalin-6-yl)amino)pyrimidin-2-yl)amino)-5-methoxy-2-methylphenyl)piperidin-4-yl)-2,5-diazabicyclo[2.2.1]heptan-2-yl)ethyl)piperidin-1-yl)-2,6-difluorophenyl)piperidine-2,6-dione] | 93.75 |
| 11.1 | 73.8 | 24.8 | CCc1cc(Nc2ncc(Br)c(Nc3ccc4nccnc4c3P(C)(C)=O)n2)c(OC)cc1N1CCC(N2CCN(C3CN(c4ccc(C5CCC(=O)NC5=O)cc4)C3)CC2)CC1 (stereo not drawn) [Example 250] | 75.19 |
| 9.03 | 86.6 | 22.1 | CCc1cc(Nc2ncc(Br)c(Nc3ccc4nccnc4c3P(C)(C)=O)n2)c(OC)cc1N1CCC(N2CCN(C(=O)C3CN(c4ccc(C5CCC(=O)NC5=O)cc4)C3)CC2)CC1 (stereo not drawn) [Example 199, 3-(4-(3-(4-(1-(4-((5-bromo-4-((5-(dimethylphosphoryl)quinoxalin-6-yl)amino)pyrimidin-2-yl)amino)-2-ethyl-5-methoxyphenyl)piperidin-4-yl)piperazine-1-carbonyl)azetidin-1-yl)phenyl)piperidine-2,6-dione] | 84.49 |
| 3.06 | 90 | 8.2 | CCc1cc(Nc2ncc(Br)c(Nc3ccc4nc(C)ccc4c3P(C)(C)=O)n2)c(OC)cc1N1CCC(N2C[C@H](C)N(CCc3cc(F)c(C4CCC(=O)NC4=O)c(F)c3)C[C@H]2C)CC1 (stereo partly drawn) [Example 716, 3-(4-(2-((2S,5R)-4-(1-(4-((5-bromo-4-((5-(dimethylphosphoryl)-2-methylquinolin-6-yl)amino)pyrimidin-2-yl)amino)-2-ethyl-5-methoxyphenyl)piperidin-4-yl)-2,5-dimethylpiperazin-1-yl)ethyl)-2,6-difluorophenyl)piperidine-2,6-dione] | 91.65 |
| 2.23 | 92.7 | 9.87 | CCc1cc(Nc2ncc(Br)c(Nc3ccc4ncn(C)c(=O)c4c3P(C)(C)=O)n2)c(OC)cc1N1CCC(N2CCN(C(=O)C3CCN(c4cc(F)c(C5CCC(=O)NC5=O)c(F)c4)C3)CC2)CC1 (stereo not drawn) [Example 701, 3-(4-(3-(4-(1-(4-((5-bromo-4-((5-(dimethylphosphoryl)-3-methyl-4-oxo-3,4-dihydroquinazolin-6-yl)amino)pyrimidin-2-yl)amino)-2-ethyl-5-methoxyphenyl)piperidin-4-yl)piperazine-1-carbonyl)pyrrolidin-1-yl)-2,6-difluorophenyl)piperidine-2,6-dione] | 90.24 |

— patent US20230265116A1, “DEGRADATION OF (EGFR) BY CONJUGATION OF EGFR INHIBITORS WITH E3 LIGASE LIGAND AND METHODS OF USE” (BEIGENE, LTD., priority 2020, published 2023)
